Consider 16 compounds from paper PMC10047800, “Evaluation of Some Benzo[g]Quinazoline Derivatives as Antiviral Agents against Human Rotavirus Wa Strain: Biological Screening and Docking Study” (Current Issues in Molecular Biology, 2023).

What all share (assay type): cell-based
In one data set the test system is Hep-2 cells. As to the kind of experiment: Cytotoxicity test (cell morphology, trypan blue viability): non-toxic dose on Hep-2 cells. The following applies: Hep-2 cell line, 72 h. The method, then: (§1) It was carried out in accordance with the methods that were reported. In 1 mL of ethyl alcohol, 100 mg of sample was dissolved. A sample of 24 μL of 100× antibiotic–antimycotic mixture was added to 1 mL of sample to decontaminate it. Then, bi-fold dilutions were done to 100 μL of the original dissolved sample, and 100 μL of each dilution was inoculated in Hep-2, BGM, MA104, and CaCo-2 cell lines (obtained from the Holding Company for Biological Products & Vaccines VACSERA, Giza, Egypt) previously cultured in 96 multi well plates (Greiner-Bio one, Frickenhausen, Germany) to estimate the sample’s non-toxic dose. Inverted light microscope cell morphology and trypan blue dye exclusion cell viability tests were used for cytotoxicity assay.
(§2) The Hep-2, BGM, MA104, and CaCo-2 cell cultures were each seeded at a concentration of 2 × 10^5 cells/mL and grown individually in 96-well tissue culture plates (Greiner-Bio one, Frickenhausen, Germany). After an incubation period of 24 h at 37 °C in an atmosphere containing 5% (v/v) CO2, cell monolayers were confluent. At this point, the media was withdrawn from each well and replaced with 100 μL of bi-fold dilutions of the sample examined that were prepared in Dulbecco’s Modified Eagle Medium (DMEM) (GIBCO BRL, Darmstadt, Germany). For the purpose of cell controls, 100 μL of DMEM containing no samples was added. All the cultures were kept in an atmosphere with 5% (v/v) CO2 that was humidified and incubated at 37 °C for a total of 72 h. […] Morphology shifts were observed and scored.
(§3) Trypan blue dye was excluded from the experiment. […]. In 12-well tissue culture plates, Hep-2, BGM, MA104, and CaCo-2 cells (2 × 10^5 cells/mL) were cultivated (Greiner-Bio one, Frickenhausen, Germany). Following an incubation period of 24 h, 100 μL of tested sample dilutions, also known as bi-fold dilutions, were added to each well, and the results were examined in the same manner as described previously. After 72 h, the medium was removed, the cells were trypsinized, and an equal amount of an aqueous solution containing 0.4% (w/v) trypan blue dye was added. Counting the number of viable cells required phase contrast microscopes.

Another data set relates to BGM cells. As to the kind of experiment: Cytotoxicity test (cell morphology, trypan blue viability): non-toxic dose on BGM cells. The following applies: BGM cell line, 72 h. The method, then:
as §1, §2, §3

The subject of another data set is MA104 cells. As to the kind of experiment: Cytotoxicity test (cell morphology, trypan blue viability): non-toxic dose on MA104 cells. The following applies: MA104 cell line, 72 h. The method, then: as §1, §2, §3
The subject of data set [1] is human rotavirus Wa strain. The data set is described as follows: Rotavirus titers by plaque assay after treatment with non-toxic doses. The following applies: virus 1 × 10^7 PFU/mL, Mean ± SD of three results. The method, then: The Rotavirus Wa strain, at a concentration of 1 × 10^7 PFU/mL, was mixed with non-toxic dilutions in a volume of 100 μL. At a temperature of 37 °C and 10 μg/mL of trypsin, the rotavirus stocks became infectious after 30 min. The mixture was incubated for half an hour at 37 °C. The Hep 2, BGM, and MA104 cell lines were seeded into the wells of 12 multi-well plates and then injected with 100 μL (10-fold) dilutions of the treated and untreated rotavirus Wa strain after an hour of adsorption at 37 °C in an atmosphere containing 5% CO2-water vapor without shaking. The plates were bounced at regular intervals to prevent the cells from drying out. Following the adsorption step, 1 mL of a 2× media consisting of Dulbecco’s Modified Eagle Medium, Gibco-BRL (DMEM), and 1% agarose were added to each well. The mixture of medium and agarose was given an additional 0.5 μg/mL of trypsin so that it could test for the rotavirus Wa strain. The plates were kept in an incubator with an environment containing 5% CO2 and water vapor at 37 °C. After being fixed with formalin and stained with crystal violet at a concentration of 0.4%, the plaques were counted. After that, the PFU/mL viral titers were determined.

On to `Cn1c(SCc2cccc(C#N)c2)nc2cc3ccccc3cc2c1=O` [Compound 9], for which the “Non-Toxic Doses” value is given as 70 µg/mL in the data set on Hep-2 cells, 65 µg/mL in the data set on BGM cells and 75 µg/mL with MA104 cells.

On to `CCn1c(SCc2ccc(Cl)cc2)nc2cc3ccccc3cc2c1=O` [Compound 7], for which the “Non-Toxic Doses” value in the data set with Hep-2 cells, in the data set on BGM cells and with MA104 cells was 60 µg/mL each time.

Consider `COc1cccc(CSc2nc3cc4ccccc4cc3c(=O)n2Cc2ccccc2)c1` [Compound 6], for which the “Non-Toxic Doses” value with Hep-2 cells, with BGM cells and in the data set with MA104 cells was 65 µg/mL in each case. The “% Reduction of Rotavirus Wa strain” value in data set [1] is given as 20% ± 4%.

For `O=c1c2cc3ccccc3cc2nc(SCc2ccc(Cl)cc2)n1Cc1ccccc1` [Compound 8], the “Non-Toxic Doses” value in the data set with Hep-2 cells, in the data set on BGM cells and with MA104 cells was 50 µg/mL each time.

Regarding `NNc1nc2cc3ccccc3cc2c(=O)n1Cc1ccccc1` [Compound 16], the “Non-Toxic Doses” value worked out at 65 µg/mL in the data set with Hep-2 cells, 60 µg/mL in the data set on BGM cells and 60 µg/mL in the data set on MA104 cells.

`Cn1c(NN)nc2cc3ccccc3cc2c1=O` [Compound 14]: the “Non-Toxic Doses” value is 60 µg/mL with Hep-2 cells, 55 µg/mL in the data set on BGM cells and 60 µg/mL in the data set with MA104 cells.

As for `N#Cc1ccc(CSc2nc3cc4ccccc4cc3c(=O)n2Cc2ccccc2)cc1` [Compound 11], the “Non-Toxic Doses” value in the data set with Hep-2 cells, in the data set on BGM cells and with MA104 cells was 65 µg/mL in each case.

As for `Cn1c(=S)[nH]c2cc3ccccc3cc2c1=O` [Compound 1], the “Non-Toxic Doses” value in the data set on Hep-2 cells worked out at 65 µg/mL; with BGM cells, 60 µg/mL; in the data set with MA104 cells it was 65 µg/mL.

Regarding `CCn1c(NN)nc2cc3ccccc3cc2c1=O` [Compound 15], the “Non-Toxic Doses” value with Hep-2 cells, in the data set on BGM cells and in the data set with MA104 cells was 55 µg/mL each time.

In the case of `CCn1c(SCc2cccc(OC)c2)nc2cc3ccccc3cc2c1=O` [Compound 5], the “Non-Toxic Doses” value in the data set on Hep-2 cells was found to be 60 µg/mL; with BGM cells, 55 µg/mL; with MA104 cells, 55 µg/mL.

Regarding `CCn1c(SCc2ccc(C#N)cc2)nc2cc3ccccc3cc2c1=O` [Compound 10], the “Non-Toxic Doses” value with Hep-2 cells was found to be 50 µg/mL; in the data set with BGM cells, 50 µg/mL; in the data set on MA104 cells, 55 µg/mL.

Turning to `CCn1c(SCCCN2C(=O)c3ccccc3C2=O)nc2cc3ccccc3cc2c1=O` [Compound 12], the “Non-Toxic Doses” value with Hep-2 cells is given as 30 µg/mL; in the data set with BGM cells it was 25 µg/mL; in the data set on MA104 cells it was 30 µg/mL.

Take `O=c1c2cc3ccccc3cc2[nH]c(=S)n1Cc1ccccc1` [Compound 3]: the “Non-Toxic Doses” value in the data set with Hep-2 cells is on record as 70 µg/mL; with BGM cells, 60 µg/mL; in the data set with MA104 cells it was 75 µg/mL.

`O=C1c2ccccc2C(=O)N1CCCSc1nc2cc3ccccc3cc2c(=O)n1Cc1ccccc1` [Compound 13]: the “Non-Toxic Doses” value is 45 µg/mL in the data set on Hep-2 cells, 40 µg/mL with BGM cells and 50 µg/mL in the data set with MA104 cells. Besides, the “% Reduction of Rotavirus Wa strain” value in data set [1] is recorded as 20% ± 3%.

`CCn1c(=S)[nH]c2cc3ccccc3cc2c1=O` [Compound 2]: the “Non-Toxic Doses” value in the data set with Hep-2 cells, with BGM cells and in the data set on MA104 cells was 60 µg/mL in each case.

As for `COc1cccc(CSc2nc3cc4ccccc4cc3c(=O)n2C)c1` [Compound 4], the “Non-Toxic Doses” value in the data set with Hep-2 cells is reported as 55 µg/mL; in the data set with BGM cells, 50 µg/mL; with MA104 cells it was 55 µg/mL.
